Values after ≈ are worked out from the molar mass of the structure shown. Values joined by “and” are separate entries in the source; they are usually repeats but may differ in a detail not shown here. Equal values may be shown once. Read-outs that look alike come from different tables or passages of the source.
How the values were obtained:
[1] = ANTS/DPX leakage from lipid vesicles; settings: incubated with lipid vesicles for 1 hour
Protocol: Both delta-haemolysin and PSMdelta were evaluated for their ability to perforate synthetic lipid vesicles. Lipid vesicles were made with a 2:1 molar ratio of POPC to POPG. The lipid vesicles, extruded through a 200 nm polycarbonate film, encapsulated the fluorescent dye, ANTS, and a quencher: DPX. Upon membrane perforation, ANTS/DPX are released and separated, allowing ANTS to fluoresce at 530 nm.

[2] = system: GAS membranes; assay: SEM analysis of GAS membranes; format: cell-based, Group A Streptococcus; settings: 16 μM peptide
[3] = Excerpt: (§1) Tryptophan emission is a sensitive indicator for the physical environment surrounding the amino acid (˜330 nm in a folded or hydrophobic environment; ˜355 nm in an unfolded or aqueous environment).
[4] = remark: listed apart in the source
Excerpt: Sequestration of tryptophan (Trp) can be observed through blue shift in wavelength of photon emission after excitation at 290 nm. […] (c) overlay of emission spectra.
as §1

[5] = system: GAS

| Compound | ANTS fluorescence at 530 nm (vesicle leakage) [1] | membrane effect seen by SEM [2] | deltaG^1(H2O) ([3]; 5 μM peptide) | midpoint of the unfolding curve ([3]; 5 μM peptide) | deltaG^1(H2O) ([3]; 25 μM peptide) | midpoint of the unfolding curve ([3]; 25 μM peptide) | deltaG^1(H2O) ([3]; 25 μM peptide, figure legend) | tryptophan emission ([4]; before incubation with lipid vesicles) | tryptophan emission ([4]; incubation with lipid vesicles) | tryptophan emission ([4]; lipid vesicles plus urea) | MBC [5] | MIC [5] | MIC ([5]; listed as Synthetic delta-haemolysin) | MIC of delta-haemolysin in the presence of PSMdelta ([5]; with 2 μM PSMdelta) |
| --- | --- | --- | --- | --- | --- | --- | --- | --- | --- | --- | --- | --- | --- | --- |
| MSIVSTIIEVVKTIVDIVKKFKK (listed as Staphylococcus epidermidis) [PSMdelta, peptide identified in S. epidermidis fraction 37, tested as synthetic peptide] | Dose-dependent fluorescence |  |  |  |  |  |  |  |  |  |  |  |  |  |
| CRAMP [reference compound] |  | Membrane disruption |  |  |  |  |  |  |  |  |  |  |  |  |
| CC[C@H](C)[C@H](NC(=O)[C@H](Cc1c[nH]c2ccccc12)NC(=O)[C@H](CCCCN)NC(=O)[C@@H](NC(=O)[C@H](CC(C)C)NC(=O)[C@H](CC(=O)O)NC(=O)CNC(=O)[C@@H](NC(=O)[C@@H](NC(=O)[C@H](CO)NC(=O)[C@@H](NC(=O)[C@@H](NC(=O)[C@H](CC(=O)O)NC(=O)[C@H](C)NC(=O)[C@H](C)NC(=O)[C@@H](N)CCSC)[C@@H](C)CC)[C@@H](C)CC)[C@@H](C)O)[C@@H](C)CC)C(C)C)C(=O)N[C@H](C(=O)N[C@@H](CC(=O)O)C(=O)N[C@H](C(=O)N[C@H](C(=O)N[C@@H](CC(N)=O)C(=O)N[C@@H](CCCCN)C(=O)N[C@@H](Cc1ccccc1)C(=O)N[C@@H](CCCCN)C(=O)N[C@@H](CCCCN)C(=O)O)C(C)C)[C@@H](C)O)[C@@H](C)CC [delta-haemolysin] | Dose-dependent fluorescence | membrane blebbing and disruption | 1.43 kcal/mol | 2.14 M urea | 1.57 kcal/mol | 3.20 M urea and 3.2 M urea | 1.57 kcal/mol | 339 nm | 332 nm | 335 nm | 16 µM (≈ 45.1 µg/mL) | 8 µM (≈ 22.6 µg/mL) | 16 µM (≈ 45.1 µg/mL) | 4 µM |
